Earlier results, collected in patent US20130273137A1, “DRUG DELIVERY COATING AND DEVICES” (MASSACHUSETTS EYE & EAR INFIRMARY, priority 2010, published 2013).

Test system: S. aureus
Conditions: native MIC

## CN[C@H](CC(C)C)C(=O)N[C@H]1C(=O)N[C@@H](CC(N)=O)C(=O)N[C@H]2C(=O)N[C@H]3C(=O)N[C@H](C(=O)N[C@H](C(=O)O)c4cc(O)cc(O)c4-c4cc3ccc4O)[C@H](O)c3ccc(c(Cl)c3)Oc3cc2cc(c3O[C@@H]2O[C@H](CO)[C@@H](O)[C@H](O)[C@H]2O[C@H]2C[C@](C)(N)[C@H](O)[C@H](C)O2)Oc2ccc(cc2Cl)[C@H]1O [vancomycin]
  minimum inhibitory concentration of vancomycin against S. aureus: 0.5 to 2 µg/mL
